{"source": "patent US8557308B2", "about": "“Andrographis paniculata extract” (Nutrition Science Partners Limited, priority 2007, dated 2013)", "test_system": "mildly to moderately active ulcerative colitis", "assay": "Randomized, double-dummy, active controlled 8-week clinical trial in ulcerative colitis", "assay_type": "in vivo, human", "settings": "week 8", "method": "120 patients with colonoscopy-confirmed mildly to moderately active ulcerative colitis were assigned to two groups (60 patients/group). […] All other medications were excluded. The therapeutic effects were assessed biweekly using a scale similar to the partial Mayo Scoring System, and the clinical symptom score reduction (≧50% reduction in symptoms) was calculated. Scores were then retrospectively calculated using the standard partial Mayo scores (PMS), clinical response (improvement ≧2 points or final score of 0) and remission (≦1 PMS score at week 8). Colonoscopies at the beginning and at the end of treatment were rated with a modified Baron score, and biopsies taken during colonoscopy were graded histologically with a scale of 0-3.", "data": [{"smiles": "Nc1ccc(O)c(C(=O)O)c1", "note": "[Etiasa, 5-amino-2-hydroxybenzoic acid]", "values": [{"measurement": "patients with Baron scores reduced by at least two grades", "setting": "colonoscopy", "result": 42, "unit": "%"}, {"measurement": "clinical response rate (partial Mayo score improvement ≧2 points or final score of 0)", "result": 58, "unit": "%"}]}]}
